How the values were obtained:
green foxtail [1] = assay: Test Example 5: herbicidal effect by foliage application, plastic box (Table 20, symbol G); type: in vivo, green foxtail (Setaria viridis); conditions: foliage application
Method in brief: (§1)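 Foliar spray test: emulsion formulation diluted in water to a set application rate, sprayed onto 14-day-old plants raised in diluvial soil at 25° C to 30° C under glass. Both herbicidal effect and crop effect rated visually three weeks later.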

windgrass = assay: Test Example 5: herbicidal effect by foliage application, plastic box (Table 20, symbol L); type: in vivo, windgrass (Apera spica-venti); conditions: foliage application
Method in brief: as §1

persian speedwell = assay: Test Example 5: herbicidal effect by foliage application, plastic box (Table 20, symbol R); type: in vivo, Persian speedwell (Veronica persica); conditions: foliage application
Method in brief: as §1

Italian ryegrass = assay: Test Example 4: herbicidal effect by soil treatment (Table 19, symbol K); type: in vivo, Italian ryegrass (Lolium multiflorum); conditions: amount of applied herbicide 320 g/ha
Method in brief: (§2)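 Step 1: sow seeds in sterilized diluvial soil, cover ~1.5 cm. Step 2: spray diluted emulsion onto soil surface at predetermined rate. Step 3: greenhouse, 25–30° C, three weeks. Step 4: grade effect on each plant by earlier criteria.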

chickweed [2] = assay: Test Example 4: herbicidal effect by soil treatment (Table 19, symbol P); type: in vivo, common chickweed (Stellaria media); conditions: amount of applied herbicide 320 g/ha
Method in brief: as §2

green foxtail [3] = assay: Test Example 4: herbicidal effect by soil treatment (Table 19, symbol G); type: in vivo, green foxtail (Setaria viridis); conditions: amount of applied herbicide 320 g/ha
Method in brief: as §2

late watergrass = assay: Test Example 1: herbicidal activity, application before weed generation under submerged conditions (Table 16, symbol A); type: in vivo, late watergrass (Echinochloa oryzicola); conditions: 320 g/ha applied herbicide
Method in brief: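 Alluvial soil was flooded to 4 cm depth, weed seeds were sown mixed and 2.5-leaf rice seedlings were transplanted. On sowing day, the compound's emulsion, diluted in water to a set dose, was applied to the water surface. Plants grew at 25–30 °C and were scored 0–5 after three weeks.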

redroot pigweed = assay: Test Example 4: herbicidal effect by soil treatment (Table 19, symbol N); type: in vivo, redroot pigweed (Amaranthus retroflexus); conditions: amount of applied herbicide 320 g/ha
Method in brief: as §2

wild oat = assay: Test Example 5: herbicidal effect by foliage application, plastic box (Table 20, symbol I); type: in vivo, wild oat (Avena fatua); conditions: foliage application
Method in brief: as §1

oval-leafed pondweed = assay: Test Example 2: herbicidal activity, application during weed generation under submerged conditions (Table 17, symbol C); type: in vivo, oval-leafed pondweed (Monochoria vaginalis); conditions: AAH 320 g/ha; application during weed generation, submerged conditions
Method in brief: (§3)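 Mixed weed seedlings in alluvial soil under a 4 cm water layer, greenhouse-grown at 25–30° C. Compound given as a diluted emulsion into the floodwater at the 1–2 leaf stage; response graded after three weeks.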

southern crabgrass [4] = assay: Test Example 4: herbicidal effect by soil treatment (Table 19, symbol F); type: in vivo, southern crabgrass (Digitaria ciliaris); conditions: amount of applied herbicide 320 g/ha
Method in brief: as §2

blackgrass = assay: Test Example 4: herbicidal effect by soil treatment (Table 19, symbol J); type: in vivo, blackgrass (Alopecurus myosuroides); conditions: amount of applied herbicide 320 g/ha
Method in brief: as §2

rice flat sedge = assay: Test Example 3: herbicidal effect by foliage application, Wagner pot (Table 18, symbol E); type: in vivo, rice flat sedge (Cyperus iria); conditions: for herbicidal effect on E: rice flat sedge: amount of applied herbicide 320 g/ha; for herbicidal effect on E (rice flat sedge), rating 0-5: 320 g/ha
Method in brief: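 Plants were sown in alluvial soil held under 0.1–0.5 cm standing water and grown 14 days in a greenhouse at 25–30 °C. An emulsifiable formulation, water-diluted to the set dose, was then sprayed onto the foliage, and effects were scored three weeks later using previously defined criteria.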

chickweed [5] = assay: Test Example 5: herbicidal effect by foliage application, plastic box (Table 20, symbol P); type: in vivo, common chickweed (Stellaria media); conditions: foliage application
Method in brief: as §1

Japanese bulrush = assay: Test Example 2: herbicidal activity, application during weed generation under submerged conditions (Table 17, symbol B); type: in vivo, Japanese bulrush (Schoenoplectus juncoides); conditions: AAH 320 g/ha; application during weed generation, submerged conditions
Method in brief: as §3

southern crabgrass [6] = assay: Test Example 5: herbicidal effect by foliage application, plastic box (Table 20, symbol F); type: in vivo, southern crabgrass (Digitaria ciliaris); conditions: foliage application
Method in brief: as §1

[7] = AAH 320 g/ha, evaluated three weeks after application
[8] = 320 g/ha, three weeks after application
[9] = AAH 320 g/ha, three weeks after application
[10] = 320 g/ha, evaluated three weeks after application

Row | SMILES | herbicidal effect on K: Italian ryegrass (Italian ryegrass) | herbicidal effect on P: chickweed (chickweed [2]) | herbicidal effect on G: green foxtail (green foxtail [3]) | Herbicidal effect on A: late watergrass (grade 0-5) (late watergrass) | herbicidal effect on N: redroot pigweed (redroot pigweed) | herbicidal effect rating, C: oval-leafed pondweed (oval-leafed pondweed) | herbicidal effect on F: southern crabgrass (southern crabgrass [4]) | herbicidal effect on J: blackgrass (blackgrass) | herbicidal effect on E: rice flat sedge (rice flat sedge) | herbicidal effect rating, B: Japanese bulrush (Japanese bulrush) | herbicidal effect rating, K: Italian ryegrass (Italian ryegrass) | herbicidal effect rating, G: green foxtail (green foxtail [3]) | herbicidal effect rating, N: redroot pigweed (redroot pigweed) | herbicidal effect rating, F: southern crabgrass (southern crabgrass [4]) | herbicidal effect rating, J: blackgrass (blackgrass) | herbicidal effect on E (rice flat sedge), rating 0-5 (rice flat sedge) | herbicidal effect on L: windgrass (criteria 0-5) (windgrass; [10]) | herbicidal effect on R: persian speedwell (criteria 0-5) (persian speedwell; [10]) | herbicidal effect on I: wild oat (criteria 0-5) (wild oat; [10]) | herbicidal effect on P: chickweed (criteria 0-5) (chickweed [5]; [10]) | also measured
1 | Cc1nn(C)c(=O)c(-c2c(-c3ccc(OC(F)F)cc3)sc3ccc(F)cc23)c1OC(=O)COc1ccccc1 [2-284] | 5 (Herbicidal rate of 90% or more (almost completely withered)) | 4 (Herbicidal rate of 70% or more and less than 90%) | 5 (Herbicidal rate of 90% or more (almost completely withered)) | 3 (Herbicidal rate of 40% or more and less than 70%) | 5 (Herbicidal rate of 90% or more (almost completely withered)) | 3 (Herbicidal rate of 40% or more and less than 70%) | 4 (Herbicidal rate of 70% or more and less than 90%) | 5 (Herbicidal rate of 90% or more (almost completely withered)) | 5 (Herbicidal rate of 90% or more (almost completely withered)) | 3 (Herbicidal rate of 40% or more and less than 70%) | – | – | – | – | – | – | – | – | – | – | G: green foxtail, herbicidal effect (criteria 0-5) (green foxtail [1]; [7]): 5 (Herbicidal rate of 90% or more (almost completely withered)); L: windgrass, herbicidal effect (criteria 0-5) (windgrass; [7]): 4 (Herbicidal rate of 70% or more and less than 90%); R: persian speedwell, herbicidal effect (criteria 0-5) (persian speedwell; [7]): 5 (Herbicidal rate of 90% or more (almost completely withered)); I: wild oat, herbicidal effect (criteria 0-5) (wild oat; [7]): 4 (Herbicidal rate of 70% or more and less than 90%); P: chickweed, herbicidal effect (criteria 0-5) (chickweed [5]; [7]): 5 (Herbicidal rate of 90% or more (almost completely withered)); F: southern crabgrass, herbicidal effect (criteria 0-5) (southern crabgrass [6]; [7]): 3 (Herbicidal rate of 40% or more and less than 70%)
2 | CCCC(=O)Oc1c(C)nn(C)c(=O)c1-c1c(-c2ccc(SC)cc2)sc2ccccc12 [1-037] | – | – | – | 4 (Herbicidal rate of 70% or more and less than 90%) | – | 3 (Herbicidal rate of 40% or more and less than 70%) | – | – | – | 1 (Herbicidal rate of 5% or more and less than 20%) | 1 (Herbicidal rate of 5% or more and less than 20%) | 5 (Herbicidal rate of 90% or more (almost completely withered)) | 5 (Herbicidal rate of 90% or more (almost completely withered)) | 0 (Herbicidal rate of 5% or less (almost no effect)) | 0 (Herbicidal rate of 5% or less (almost no effect)) | 5 (Herbicidal rate of 90% or more (almost completely withered)) | – | – | – | – | herbicidal effect grade, G: green foxtail (green foxtail [1]; [8]): 5 (Herbicidal rate of 90% or more (almost completely withered)); herbicidal effect grade, L: windgrass (windgrass; [8]): 0 (Herbicidal rate of 5% or less (almost no effect)); herbicidal effect grade, R: persian speedwell (persian speedwell; [8]): 5 (Herbicidal rate of 90% or more (almost completely withered)); herbicidal effect rating, P: chickweed (chickweed [2]): 4 (Herbicidal rate of 70% or more and less than 90%); herbicidal effect grade, I: wild oat (wild oat; [8]): 1 (Herbicidal rate of 5% or more and less than 20%); herbicidal effect grade, P: chickweed (chickweed [5]; [8]): 5 (Herbicidal rate of 90% or more (almost completely withered)); herbicidal effect grade, F: southern crabgrass (southern crabgrass [6]; [8]): 3 (Herbicidal rate of 40% or more and less than 70%)
3 | Cc1nn(C)c(=O)c(-c2c(-c3ccc4c(c3)OCCO4)sc3ccccc23)c1O [1-089] | – | – | – | 5 (Herbicidal rate of 90% or more (almost completely withered)) | – | 1 (Herbicidal rate of 5% or more and less than 20%) | – | – | – | 1 (Herbicidal rate of 5% or more and less than 20%) | 0 (Herbicidal rate of 5% or less (almost no effect)) | 5 (Herbicidal rate of 90% or more (almost completely withered)) | 4 (Herbicidal rate of 70% or more and less than 90%) | 3 (Herbicidal rate of 40% or more and less than 70%) | 0 (Herbicidal rate of 5% or less (almost no effect)) | 5 (Herbicidal rate of 90% or more (almost completely withered)) | – | – | – | – | G: green foxtail, herbicidal effect (green foxtail [1]; [9]): 5 (Herbicidal rate of 90% or more (almost completely withered)); L: windgrass, herbicidal effect (windgrass; [9]): 4 (Herbicidal rate of 70% or more and less than 90%); R: persian speedwell, herbicidal effect (persian speedwell; [9]): 5 (Herbicidal rate of 90% or more (almost completely withered)); I: wild oat, herbicidal effect (wild oat; [9]): 0 (Herbicidal rate of 5% or less (almost no effect)); P: chickweed, herbicidal effect (chickweed [5]; [9]): 5 (Herbicidal rate of 90% or more (almost completely withered)); F: southern crabgrass, herbicidal effect (southern crabgrass [6]; [9]): 4 (Herbicidal rate of 70% or more and less than 90%)
4 | Cc1nn(C)c(=O)c(-c2c(-c3cccc(OC(C)C)c3)sc3ccc(F)cc23)c1O [2-215] | – | – | – | 3 (Herbicidal rate of 40% or more and less than 70%) | – | 0 (Herbicidal rate of 5% or less (almost no effect)) | – | – | 4 (Herbicidal rate of 70% or more and less than 90%) | 0 (Herbicidal rate of 5% or less (almost no effect)) | – | – | – | – | – | – | 3 (Herbicidal rate of 40% or more and less than 70%) | 5 (Herbicidal rate of 90% or more (almost completely withered)) | 0 (Herbicidal rate of 5% or less (almost no effect)) | 5 (Herbicidal rate of 90% or more (almost completely withered)) | herbicidal effect on G: green foxtail (criteria 0-5) (green foxtail [1]; [10]): 5 (Herbicidal rate of 90% or more (almost completely withered)); K: Italian ryegrass, herbicidal effect rating (Italian ryegrass): 3 (Herbicidal rate of 40% or more and less than 70%); G: green foxtail, herbicidal effect rating (green foxtail [3]): 5 (Herbicidal rate of 90% or more (almost completely withered)); N: redroot pigweed, herbicidal effect rating (redroot pigweed): 5 (Herbicidal rate of 90% or more (almost completely withered)); F: southern crabgrass, herbicidal effect rating (southern crabgrass [4]): 5 (Herbicidal rate of 90% or more (almost completely withered)); J: blackgrass, herbicidal effect rating (blackgrass): 1 (Herbicidal rate of 5% or more and less than 20%); herbicidal effect on F: southern crabgrass (criteria 0-5) (southern crabgrass [6]; [10]): 5 (Herbicidal rate of 90% or more (almost completely withered))
5 | CCCCCOc1cccc(-c2sc3ccc(F)cc3c2-c2c(O)c(C)nn(C)c2=O)c1 [2-225] | 0 (Herbicidal rate of 5% or less (almost no effect)) | 0 (Herbicidal rate of 5% or less (almost no effect)) | 0 (Herbicidal rate of 5% or less (almost no effect)) | 0 (Herbicidal rate of 5% or less (almost no effect)) | 5 (Herbicidal rate of 90% or more (almost completely withered)) | 0 (Herbicidal rate of 5% or less (almost no effect)) | 0 (Herbicidal rate of 5% or less (almost no effect)) | 0 (Herbicidal rate of 5% or less (almost no effect)) | 4 (Herbicidal rate of 70% or more and less than 90%) | 3 (Herbicidal rate of 40% or more and less than 70%) | – | – | – | – | – | – | 4 (Herbicidal rate of 70% or more and less than 90%) | 5 (Herbicidal rate of 90% or more (almost completely withered)) | 0 (Herbicidal rate of 5% or less (almost no effect)) | 5 (Herbicidal rate of 90% or more (almost completely withered)) | herbicidal effect on F: southern crabgrass (criteria 0-5) (southern crabgrass [6]; [10]): 2 (Herbicidal rate of 20% or more and less than 40%)
